Data as given in ChEMBL document CHEMBL3885881, “DrugMatrix”.

Species on record: Rattus norvegicus
Test: DrugMatrix - Regimen: Daily Repeat
Format: toxicity, organism-based, Sprague-Dawley
Design: regimen Daily Repeat, gender Male, age 6-8 weeks
Details: in vivo, po, route oral GAVAGE, vehicle .5 % CMC; for ABSOLUTE BASOPHIL / ABSOLUTE EOSINOPHIL / ABSOLUTE LYMPHOCYTE / ABSOLUTE MONOCYTE / ABSOLUTE SEGMENTED NEUTROPHIL / BASOPHIL / EOSINOPHIL / ERYTHROCYTE COUNT / HEMATOCRIT / HEMOGLOBIN / LEUKOCYTE COUNT / LYMPHOCYTE / MEAN CORPUSCULAR HEMOGLOBIN / MEAN CORPUSCULAR HEMOGLOBIN CONCENTRATION / MEAN CORPUSCULAR VOLUME / MONOCYTE / NEUTROPHIL / NUCLEATED RED BLOOD CELLS / PLATELET COUNT: tissue Blood; for ALANINE AMINOTRANSFERASE / ALBUMIN / ALKALINE PHOSPHATASE / ASPARTATE AMINOTRANSFERASE / BLOOD UREA NITROGEN / CARBON DIOXIDE / CHLORIDE / CHOLESTEROL / CREATINE PHOSPHOKINASE / CREATININE / GLUCOSE / LACTATE DEHYDROGENASE / LIPASE / PHOSPHORUS / POTASSIUM / SODIUM / TOTAL BILIRUBIN / TOTAL PROTEIN / URIC ACID: tissue Plasma
[1] = 0 mg/kg, 72 h, dose level Control, time 3 day
[2] = 0 mg/kg, 120 h, dose level Control, time 5 day
[3] = 10 mg/kg, 72 h, dose level Low, time 3 day

Compound: CCOC(=O)[C@H](CCc1ccccc1)N[C@@H](C)C(=O)N1Cc2ccccc2C[C@H]1C(=O)O
- ABSOLUTE BASOPHIL [1]: 0 CELLS/uL
- ABSOLUTE EOSINOPHIL [1]: 0 CELLS/uL
- ABSOLUTE LYMPHOCYTE [1]: 12191.17 CELLS/uL
- ABSOLUTE MONOCYTE [1]: 183.17 CELLS/uL
- ABSOLUTE SEGMENTED NEUTROPHIL [1]: 1192.33 CELLS/uL
- BASOPHIL [1]: 0%
- EOSINOPHIL [1]: 0%
- ERYTHROCYTE COUNT [1]: 5.51 x10E6/uL
- HEMATOCRIT [1]: 35.45%
- HEMOGLOBIN [1]: 13.82 G/DL
- LEUKOCYTE COUNT [1]: 13.57 x10E3/uL
- LYMPHOCYTE [1]: 89.83%
- MEAN CORPUSCULAR HEMOGLOBIN [1]: 25.1 pg
- MEAN CORPUSCULAR HEMOGLOBIN CONCENTRATION [1]: 38.98 G/DL
- MEAN CORPUSCULAR VOLUME [1]: 64.42 fL
- MONOCYTE [1]: 1.33%
- NEUTROPHIL [1]: 8.83%
- NUCLEATED RED BLOOD CELLS [1]: 0 /100WBC
- PLATELET COUNT [1]: 1118.17 x10E3/uL
- ALANINE AMINOTRANSFERASE [1]: 55 u/L
- ALBUMIN [1]: 4.15 G/DL
- ALKALINE PHOSPHATASE [1]: 449.5 u/L
- ASPARTATE AMINOTRANSFERASE [1]: 112.83 u/L
- BLOOD UREA NITROGEN [1]: 17.33 mg/dL
- CARBON DIOXIDE [1]: 29.5 mmol/L
- CHLORIDE [1]: 101 MEQ/L
- CHOLESTEROL [1]: 70 mg/dL
- CREATINE PHOSPHOKINASE [1]: 1325.83 u/L
- CREATININE [1]: 0.18 mg/dL
- GLUCOSE [1]: 171.5 mg/dL
- LACTATE DEHYDROGENASE [1]: 386 u/L
- LIPASE [1]: 10 u/L
- PHOSPHORUS [1]: 11.57 mg/dL
- POTASSIUM [1]: 6.21 MEQ/L
- SODIUM [1]: 141.65 MEQ/L
- TOTAL BILIRUBIN [1]: 0.15 mg/dL
- TOTAL PROTEIN [1]: 5.75 G/DL
- URIC ACID [1]: 1.28 mg/dL
- ABSOLUTE BASOPHIL [2]: 0 CELLS/uL
- ABSOLUTE EOSINOPHIL [2]: 138.17 CELLS/uL
- ABSOLUTE LYMPHOCYTE [2]: 13283.17 CELLS/uL
- ABSOLUTE MONOCYTE [2]: 303.83 CELLS/uL
- ABSOLUTE SEGMENTED NEUTROPHIL [2]: 1308.17 CELLS/uL
- BASOPHIL [2]: 0%
- EOSINOPHIL [2]: 1%
- ERYTHROCYTE COUNT [2]: 5.32 x10E6/uL
- HEMATOCRIT [2]: 33.8%
- HEMOGLOBIN [2]: 13.63 G/DL
- LEUKOCYTE COUNT [2]: 15.03 x10E3/uL
- LYMPHOCYTE [2]: 88.33%
- MEAN CORPUSCULAR HEMOGLOBIN [2]: 25.68 pg
- MEAN CORPUSCULAR HEMOGLOBIN CONCENTRATION [2]: 40.35 G/DL
- MEAN CORPUSCULAR VOLUME [2]: 63.67 fL
- MONOCYTE [2]: 1.83%
- NEUTROPHIL [2]: 8.83%
- NUCLEATED RED BLOOD CELLS [2]: 0 /100WBC
- PLATELET COUNT [2]: 1097.5 x10E3/uL
- ALANINE AMINOTRANSFERASE [2]: 54.5 u/L
- ALBUMIN [2]: 4.27 G/DL
- ALKALINE PHOSPHATASE [2]: 337 u/L
- ASPARTATE AMINOTRANSFERASE [2]: 94.67 u/L
- BLOOD UREA NITROGEN [2]: 17 mg/dL
- CARBON DIOXIDE [2]: 28.33 mmol/L
- CHLORIDE [2]: 101.5 MEQ/L
- CHOLESTEROL [2]: 71.33 mg/dL
- CREATINE PHOSPHOKINASE [2]: 628.17 u/L
- CREATININE [2]: 0.19 mg/dL
- GLUCOSE [2]: 177.83 mg/dL
- LACTATE DEHYDROGENASE [2]: 500.5 u/L
- LIPASE [2]: 9.5 u/L
- PHOSPHORUS [2]: 12.3 mg/dL
- POTASSIUM [2]: 5.63 MEQ/L
- SODIUM [2]: 143.03 MEQ/L
- TOTAL BILIRUBIN [2]: 0.2 mg/dL
- TOTAL PROTEIN [2]: 6.02 G/DL
- URIC ACID [2]: 1.5 mg/dL
- ABSOLUTE BASOPHIL [3]: 0 CELLS/uL
- ABSOLUTE EOSINOPHIL [3]: 39 CELLS/uL
- ABSOLUTE LYMPHOCYTE [3]: 11213 CELLS/uL
- ABSOLUTE MONOCYTE [3]: 0 CELLS/uL
- ABSOLUTE SEGMENTED NEUTROPHIL [3]: 1148 CELLS/uL
- BASOPHIL [3]: 0%
- EOSINOPHIL [3]: 0.33%
- ERYTHROCYTE COUNT [3]: 5.3 x10E6/uL
- HEMATOCRIT [3]: 34.07%
- HEMOGLOBIN [3]: 13.93 G/DL
- LEUKOCYTE COUNT [3]: 12.4 x10E3/uL
- LYMPHOCYTE [3]: 90.33%
- MEAN CORPUSCULAR HEMOGLOBIN [3]: 26.33 pg
- MEAN CORPUSCULAR HEMOGLOBIN CONCENTRATION [3]: 40.9 G/DL
- MEAN CORPUSCULAR VOLUME [3]: 64.37 fL
- MONOCYTE [3]: 0%
- NEUTROPHIL [3]: 9.33%
- NUCLEATED RED BLOOD CELLS [3]: 0 /100WBC
- PLATELET COUNT [3]: 1446.33 x10E3/uL
